{"source": "patent US4960900A", "about": "“Oxyimino derivatives of thiazole, method of preparation and use in therapy” (priority 1987, dated 1990)", "origin": "cited, not measured here", "key": {"[1]": {"settings": "prior art documents; cited from earlier work"}, "[2]": {"settings": "prior art documents; cited from earlier work", "remark": "listed apart in the source"}}, "note": "Entries after “also recorded” stand apart in the source; their conditions may differ.", "data": [{"compound": "Cc1ncsc1C(C)O", "note": "(centres unmarked) [1-(4-methylthiazol-5-yl)ethanol]", "values": [{"measurement": "antihypoxic properties (prior art)", "setting": "[1]", "value": "devoid of beneficial antihypoxic effects"}, {"measurement": "anticonvulsant properties (prior art)", "setting": "[2]", "value": "possesses anticonvulsant properties; also recorded: is an anticonvulsant"}]}]}
